In assay [1] the test system is antibodies in sera from SARS patients (sera 1a, 1b, 2, 6, 37, 62, London, SARS-yellow, SARS-green). Type of assay: binding, human. Details: Binding of serum 6 to linear peptides of protein X1 of SARS-CoV Urbani / Binding of serum 37 to linear peptides of protein X1 of SARS-CoV Urbani / Binding of serum 6 to looped/cyclic peptide (PEPSCAN-ELISA) / Binding of serum 37 to looped/cyclic peptide (PEPSCAN-ELISA) / Binding of serum 37 to looped/cyclic peptides of protein X1 of SARS-CoV Urbani / Binding of serum 6 to linear peptides of protein X2 / Binding of serum 37 to linear peptides of protein X2 / Binding of serum 37 to looped/cyclic peptides of protein X2 of SARS-CoV Urbani / Binding of serum 6 to linear peptides of protein M of SARS-CoV Urbani / Binding of serum 37 to linear peptides of protein M of SARS-CoV Urbani / Binding of serum 6 to looped/cyclic peptides of protein M of SARS-CoV Urbani / Binding of serum 37 to looped/cyclic peptides of protein M of SARS-CoV Urbani / Binding of serum 6 to linear peptides of protein X3 of SARS-CoV Urbani / Binding of serum 37 to linear peptides of protein X3 of SARS-CoV Urbani / Binding of serum 37 to looped/cyclic peptides of protein X3 of SARS-CoV Urbani / Binding of serum 6 to linear peptides of protein X4 of SARS-CoV Urbani / Binding of serum 37 to linear peptides of protein X4 of SARS-CoV Urbani / Binding of serum 37 to looped/cyclic peptides of protein X4 of SARS-CoV Urbani / Binding of serum 6 to linear peptides of protein X5 of SARS-CoV Urbani / Binding of serum 37 to linear peptides of protein X5 of SARS-CoV Urbani / Binding of serum 37 to looped/cyclic peptides of protein X5 of SARS-CoV Urbani / Binding of serum 6 to linear peptides of protein N of SARS-CoV Urbani / Binding of serum 37 to linear peptides of protein N of SARS-CoV Urbani / Binding of serum 6 to linear peptide (PEPSCAN-ELISA) / Binding of serum 1a to looped/cyclic peptides of protein N of SARS-CoV Urbani / Binding of serum 1b to looped/cyclic peptides of protein N of SARS-CoV Urbani / Binding of serum 2 to looped/cyclic peptides of protein N of SARS-CoV Urbani / Binding of serum 6 to looped/cyclic peptides of protein N of SARS-CoV Urbani / Binding of serum 37 to looped/cyclic peptides of protein N of SARS-CoV Urbani / Binding of serum 62 to looped/cyclic peptides of protein N of SARS-CoV Urbani / Binding of serum London to looped/cyclic peptides of protein N of SARS-CoV Urbani / Binding of serum SARS-green to looped/cyclic peptides of protein N of SARS-CoV Urbani: unit not given here.

Assay [2] relates to control sera (pooled serum of ten healthy LUMC hospital workers; commercial negative donor pooled serum from the Dutch bloodbank). Type of assay: binding, human. Set-up: Binding of Control serum LUMC to linear peptides / Binding of Control serum Blood-bank to linear peptides / Binding of Control serum LUMC to looped peptides / Binding of Control Serum Blood-Bank to Looped peptides / Binding of Control serum LUMC to linear peptides of the protein M of SARS-CoV Urbani / Binding of Control serum Blood-bank to linear peptides of the protein M of SARS-CoV Urbani / Binding of Control serum LUMC to looped peptides of the protein M of SARS-CoV Urbani / Binding of Control Serum Blood-Bank to Looped peptides of the protein M of SARS-CoV Urbani: unit not given here.

Assay [3] concerns rabbit serum obtained by immunizing a rabbit with the SARS-CoV strain Frankfurt 1. It counts as binding. Set-up: Binding of a rabbit serum to linear peptides / Binding of a rabbit serum to looped peptides / Rabbit serum linear peptides / Rabbit serum looped peptides / Binding of a rabbit serum to linear peptides of protein N of SARS-CoV Urbani (Rabbit serum linear peptides) / Binding of a rabbit serum to looped/cyclic peptides of protein N of SARS-CoV Urbani (Rabbit serum looped peptides): unit not given here.

Consider LHSSSLTSLLKTHRM, for which, in assay [1], the “Binding of serum 1a to linear peptides of protein X2” value amounted to 0.6, the “Binding of serum 1a to looped/cyclic peptides of protein X2 of SARS-CoV Urbani” value was found to be 0.4, the “Binding of serum 1b to linear peptides of protein X2” value amounted to 0.5 and the “Binding of serum 1b to looped/cyclic peptides of protein X2 of SARS-CoV Urbani” value is reported as 0.4. Further, in assay [1], the “Binding of serum 2 to linear peptides of protein X2” value turned out to be 0.4, the “Binding of serum 2 to looped/cyclic peptides of protein X2 of SARS-CoV Urbani” value worked out at 0.3, the “Binding of serum 6 to linear peptides of protein X2” value was 0.5 and the “Binding of serum 6 to looped/cyclic peptides of protein X2 of SARS-CoV Urbani” value came to 0.2. Moreover, in assay [1], the “Binding of serum 37 to linear peptides of protein X2” value was determined as 0.5, the “Binding of serum 37 to looped/cyclic peptides of protein X2 of SARS-CoV Urbani” value is reported as 0.3, the “Binding of serum 62 to linear peptides of protein X2” value was found to be 0.5 and the “Binding of serum 62 to looped/cyclic peptides of protein X2 of SARS-CoV Urbani” value is listed as 0.4. In addition, in assay [1], the “Binding of serum London to linear peptides of protein X2” value is on record as 0.6, the “Binding of serum London to looped/cyclic peptides of protein X2 of SARS-CoV Urbani” value worked out at 0.2, the “Binding of serum SARS-green to linear peptides of protein X2” value is reported as 0.6 and the “Binding of serum SARS-green to looped/cyclic peptides of protein X2 of SARS-CoV Urbani” value is given as 0.3. In assay [1], the “Binding of serum SARS-yellow to linear peptides of protein X2” value was determined as 0.6 and the “Binding of serum SARS-yellow to looped/cyclic peptides of protein X2 of SARS-CoV Urbani” value was 0.3. Also, in assay [2], the “Binding of Control Serum Blood-Bank to Looped peptides” value came out at 0.4, the “Binding of Control serum Blood-bank to linear peptides” value stood at 0.7, the “Binding of Control serum LUMC to linear peptides” value worked out at 0.4 and the “Binding of Control serum LUMC to looped peptides” value is 0.4. For the same sequence, in assay [3], the “Binding of a rabbit serum to linear peptides” value was 0.2 and the “Binding of a rabbit serum to looped peptides” value is 0.4.
With LIVFTSCELYHYQEC, in assay [1], the “Binding of serum 1a to linear peptides of protein X4 of SARS-CoV Urbani” value was 0.8, the “Binding of serum 1a to looped/cyclic peptides of protein X4 of SARS-CoV Urbani” value stood at 0.8, the “Binding of serum 1b to linear peptides of protein X4 of SARS-CoV Urbani” value is on record as 0.8 and the “Binding of serum 1b to looped/cyclic peptides of protein X4 of SARS-CoV Urbani” value was 0.6. In assay [1], the “Binding of serum 2 to linear peptides of protein X4 of SARS-CoV Urbani” value was 0.6, the “Binding of serum 2 to looped/cyclic peptides of protein X4 of SARS-CoV Urbani” value is 0.6, the “Binding of serum 6 to linear peptides of protein X4 of SARS-CoV Urbani” value was 0.6 and the “Binding of serum 6 to looped/cyclic peptides of protein X4 of SARS-CoV Urbani” value is on record as 0.5. In assay [1], the “Binding of serum 37 to linear peptides of protein X4 of SARS-CoV Urbani” value came out at 1.0, the “Binding of serum 37 to looped/cyclic peptides of protein X4 of SARS-CoV Urbani” value is listed as 0.7, the “Binding of serum 62 to linear peptides of protein X4 of SARS-CoV Urbani” value was 1.0 and the “Binding of serum 62 to looped/cyclic peptides of protein X4 of SARS-CoV Urbani” value turned out to be 0.7. In assay [1], the “Binding of serum London to linear peptides of protein X4 of SARS-CoV Urbani” value was determined as 0.8, the “Binding of serum London to looped/cyclic peptides of protein X4 of SARS-CoV Urbani” value is 0.3, the “Binding of serum SARS-green to linear peptides of protein X4 of SARS-CoV Urbani” value is given as 1.1 and the “Binding of serum SARS-green to looped/cyclic peptides of protein X4 of SARS-CoV Urbani” value was 0.5. In addition, in assay [1], the “Binding of serum SARS-yellow to linear peptides of protein X4 of SARS-CoV Urbani” value is recorded as 0.6 and the “Binding of serum SARS-yellow to looped/cyclic peptides of protein X4 of SARS-CoV Urbani” value was found to be 0.6. Further, in assay [2], the “Binding of Control Serum Blood-Bank to Looped peptides” value is listed as 0.7, the “Binding of Control serum Blood-bank to linear peptides” value amounted to 0.6, the “Binding of Control serum LUMC to linear peptides” value was found to be 0.7 and the “Binding of Control serum LUMC to looped peptides” value stood at 0.8. In assay [3], the “Rabbit serum linear peptides” value is given as 0.5 and the “Rabbit serum looped peptides” value was 0.5.
As to LIYFLQCINACRIIM, in assay [1], the “Binding of serum 1a to linear peptides of protein X1 of SARS-CoV Urbani” value came to 0.7, the “Binding of serum 1a to looped/cyclic peptide (PEPSCAN-ELISA)” value came to 0.2, the “Binding of serum 1b to linear peptides of protein X1 of SARS-CoV Urbani” value is 0.6 and the “Binding of serum 1b to looped/cyclic peptide (PEPSCAN-ELISA)” value turned out to be 0.4. For the same sequence, in assay [1], the “Binding of serum 2 to linear peptides of protein X1 of SARS-CoV Urbani” value worked out at 0.6, the “Binding of serum 2 to looped/cyclic peptide (PEPSCAN-ELISA)” value came to 0.7, the “Binding of serum 6 to linear peptides of protein X1 of SARS-CoV Urbani” value came to 0.5 and the “Binding of serum 6 to looped/cyclic peptide (PEPSCAN-ELISA)” value amounted to 1.2. In assay [1], the “Binding of serum 37 to linear peptides of protein X1 of SARS-CoV Urbani” value amounted to 0.6, the “Binding of serum 37 to looped/cyclic peptide (PEPSCAN-ELISA)” value was determined as 0.2, the “Binding of serum 62 to linear peptides of protein X1 of SARS-CoV Urbani” value came out at 0.6 and the “Binding of serum 62 to looped/cyclic peptide (PEPSCAN-ELISA)” value is recorded as 0.4. In addition, in assay [1], the “Binding of serum London to linear peptides of protein X1 of SARS-CoV Urbani” value was 0.3, the “Binding of serum London to looped/cyclic peptide (PEPSCAN-ELISA)” value is 1.1, the “Binding of serum SARS-green to linear peptides of protein X1 of SARS-CoV Urbani” value was found to be 0.2 and the “Binding of serum SARS-green to looped/cyclic peptide (PEPSCAN-ELISA)” value is recorded as 0.6. In addition, in assay [1], the “Binding of serum SARS-yellow to linear peptides of protein X1 of SARS-CoV Urbani” value worked out at 0.4 and the “Binding of serum SARS-yellow to looped/cyclic peptide (PEPSCAN-ELISA)” value is given as 0.6. Also, in assay [2], the “Binding of Control Serum Blood-Bank to Looped peptides” value is 0.9, the “Binding of Control serum Blood-bank to linear peptides” value is on record as 0.6, the “Binding of Control serum LUMC to linear peptides” value came to 0.6 and the “Binding of Control serum LUMC to looped peptides” value is recorded as 0.7. For the same sequence, in assay [3], the “Binding of a rabbit serum to linear peptides” value came out at 0.1 and the “Binding of a rabbit serum to looped peptides” value is listed as 0.3.
Take LKEPCPSGTYEGNSP: in assay [1], the “Binding of serum 1a to linear peptides of protein X4 of SARS-CoV Urbani” value is 0.7, the “Binding of serum 1a to looped/cyclic peptides of protein X4 of SARS-CoV Urbani” value is given as 0.6, the “Binding of serum 1b to linear peptides of protein X4 of SARS-CoV Urbani” value is 0.4 and the “Binding of serum 1b to looped/cyclic peptides of protein X4 of SARS-CoV Urbani” value is given as 0.5. Besides, in assay [1], the “Binding of serum 2 to linear peptides of protein X4 of SARS-CoV Urbani” value amounted to 0.4, the “Binding of serum 2 to looped/cyclic peptides of protein X4 of SARS-CoV Urbani” value is given as 0.5, the “Binding of serum 6 to linear peptides of protein X4 of SARS-CoV Urbani” value is on record as 0.3 and the “Binding of serum 6 to looped/cyclic peptides of protein X4 of SARS-CoV Urbani” value is on record as 0.3. In addition, in assay [1], the “Binding of serum 37 to linear peptides of protein X4 of SARS-CoV Urbani” value worked out at 0.6, the “Binding of serum 37 to looped/cyclic peptides of protein X4 of SARS-CoV Urbani” value came to 0.5, the “Binding of serum 62 to linear peptides of protein X4 of SARS-CoV Urbani” value amounted to 0.7 and the “Binding of serum 62 to looped/cyclic peptides of protein X4 of SARS-CoV Urbani” value worked out at 0.6. For the same sequence, in assay [1], the “Binding of serum London to linear peptides of protein X4 of SARS-CoV Urbani” value came out at 0.9, the “Binding of serum London to looped/cyclic peptides of protein X4 of SARS-CoV Urbani” value is reported as 0.3, the “Binding of serum SARS-green to linear peptides of protein X4 of SARS-CoV Urbani” value is 0.5 and the “Binding of serum SARS-green to looped/cyclic peptides of protein X4 of SARS-CoV Urbani” value amounted to 0.6. In assay [1], the “Binding of serum SARS-yellow to linear peptides of protein X4 of SARS-CoV Urbani” value is 0.2 and the “Binding of serum SARS-yellow to looped/cyclic peptides of protein X4 of SARS-CoV Urbani” value came to 0.2. In assay [2], the “Binding of Control Serum Blood-Bank to Looped peptides” value was determined as 0.5, the “Binding of Control serum Blood-bank to linear peptides” value was 0.6, the “Binding of Control serum LUMC to linear peptides” value was determined as 0.3 and the “Binding of Control serum LUMC to looped peptides” value turned out to be 0.7. Moreover, in assay [3], the “Rabbit serum linear peptides” value was 0.4 and the “Rabbit serum looped peptides” value worked out at 0.0.
